Molecules are shown by their SMILES.

This assay deals with human hepatoma Huh-7 cell line harboring a HCV replicon. In words: HCV replicon assay (inhibition of viral replication, luciferase readout). The settings on record: Hepatitis C virus, 72 h, Huh-7 HCV replicon cells, 3 days incubation. Format: cell-based. The method in brief: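 Read-outs: luciferase luminescence for replication inhibition, corrected by ITMN-191 (100% inhibition) wells, and calcein AM fluorescence for cytotoxicity. Cells were treated for 3 days at 37 °C with ten 3-fold compound dilutions in 0.44% final DMSO. Percent inhibition relative to DMSO was fitted with a Hill equation to give EC50 and CC50.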
In turn, `CC1CCC(C(=O)N(c2cc(C#CC(C)(C)C)sc2C(=O)O)[C@H]2CC[C@H](Oc3ccnc(CN(C)C)c3)CC2)CC1` (stereo partly shown) [Compound 200, 3-[[-4-(2-dimethylaminomethyl-pyridin-4-yloxy)-cyclohexyl]-(4-methyl-cyclohexanecarbonyl)-amino]-5-(3,3-dimethyl-but-1-ynyl)-thiophene-2-carboxylic acid] returned an inhibition at 2 µM of 100%.
In the case of `Cn1cnc(S(=O)(=O)N2CCC(N(c3cc(C#CC(C)(C)C)sc3C(=O)O)C(=O)[C@H]3CC[C@H](C)CC3)CC2)c1` [Compound 201, 5-(3,3-Dimethyl-but-1-ynyl)-3-{(4-methyl-cyclohexanecarbonyl)-[1-(1-methyl-1′-1-imidazole-4-sulfonyl)-piperidin-4-yl]-amino}-thiophene-2-carboxylic acid], testing at 2 µM gave an inhibition of 100%.
Then `CC(C)(C)C#Cc1cc(N(C(=O)[C@H]2CC[C@H](C)CC2)C2CCN(S(=O)(=O)c3nnc[nH]3)CC2)c(C(=O)O)s1` [Compound 202, 5-(3,3-Dimethyl-but-1-ynyl)-3-{(4-methyl-cyclohexanecarbonyl)-[1-(4H-[1,2,4]triazole-3-sulfonyl)-piperidin-4-yl]-amino}-thiophene-2-carboxylic acid], with 96.4%; and `Cn1nccc1S(=O)(=O)N1CCC(N(c2cc(C#CC(C)(C)C)sc2C(=O)O)C(=O)[C@H]2CC[C@H](C)CC2)CC1` [Compound 203, 5-(3,3-Dimethyl-but-1-ynyl)-3-{(4-methyl-cyclohexanecarbonyl)-[1-(2-methyl-2H-pyrazole-3-sulfonyl)-piperidin-4-yl]-amino}-thiophene-2-carboxylic acid], with 99.8%.
Under `CN(C)c1ncc(S(=O)(=O)N2CCC(N(c3cc(C#CC(C)(C)C)sc3C(=O)O)C(=O)[C@H]3CC[C@H](C)CC3)CC2)cn1` [Compound 204, 3-[[1-(2-Dimethylamino-pyrimidine-5-sulfonyl)-piperidin-4-yl]-(4-methyl-cyclohexanecarbonyl)-amino]-5-(3,3-dimethyl-but-1-ynyl)-thiophene-2-carboxylic acid] stands 99.1%.
Then `CC(C)(C)C#Cc1cc(N(C(=O)[C@H]2CC[C@H](C)CC2)C2CCN(S(=O)(=O)c3ccsc3)CC2)c(C(=O)O)s1` [Compound 205, 5-(3,3-Dimethyl-but-1-ynyl)-3-{(4-methyl-cyclohexanecarbonyl)-[1-(thiophene-3-sulfonyl)-piperidin-4-yl]-amino}-thiophene-2-carboxylic acid], with 99.9%; and `Cc1nc(S(=O)(=O)N2CCC(N(c3cc(C#CC(C)(C)C)sc3C(=O)O)C(=O)[C@H]3CC[C@H](C)CC3)CC2)cn1C` [Compound 206, 5-(3,3-Dimethyl-but-1-ynyl)-3-[[1-(1,2-dimethyl-1H-imidazole-4-sulfonyl)-piperidin-4-yl]-(4-methyl-cyclohexanecarbonyl)-amino]-thiophene-2-carboxylic acid], with 100%.
Regarding `CC(C)(C)C#Cc1cc(N(C(=O)[C@H]2CC[C@H](C)CC2)C2CCN(S(=O)(=O)c3cccs3)CC2)c(C(=O)O)s1` [Compound 207, 5-(3,3-Dimethyl-but-1-ynyl)-3-{(4-methyl-cyclohexanecarbonyl)-[1-(thiophene-2-sulfonyl)-piperidin-4-yl]-amino}-thiophene-2-carboxylic acid], the inhibition at 2 µM amounted to 99.8%.
The compound `CC(C)(C)C#Cc1cc(N(C(=O)[C@H]2CC[C@H](C)CC2)C2CCN(S(=O)(=O)c3cnc(=O)[nH]c3)CC2)c(C(=O)O)s1` [Compound 208, 5-(3,3-Dimethyl-but-1-ynyl)-3-{(4-methyl-cyclohexanecarbonyl)-[1-(2-oxo-1,2-dihydro-pyrimidine-5-sulfonyl)-piperidin-4-yl]-amino}-thiophene-2-carboxylic acid] had an inhibition at 2 µM of 63.8%.
Then `CC(C)(C)C#Cc1cc(N(C(=O)[C@H]2CC[C@H](C)CC2)C2CCN(S(=O)(=O)c3ccccn3)CC2)c(C(=O)O)s1` [Compound 209, 5-(3,3-Dimethyl-but-1-ynyl)-3-{(4-methyl-cyclohexanecarbonyl)-[1-(pyridine-2-sulfonyl)-piperidin-4-yl]-amino}-thiophene-2-carboxylic acid], with 100%; and `CC(C)(C)C#Cc1cc(N(C(=O)[C@H]2CC[C@H](C)CC2)C2CCN(S(=O)(=O)c3cccnc3)CC2)c(C(=O)O)s1` [Compound 210, 5-(3,3-Dimethyl-but-1-ynyl)-3-{(4-methyl-cyclohexanecarbonyl)-[1-(pyridine-3-sulfonyl)-piperidin-4-yl]-amino}-thiophene-2-carboxylic acid], with 100%; and `CC(C)(C)C#Cc1cc(N(C(=O)[C@H]2CC[C@H](C)CC2)[C@H]2CCN(S(=O)(=O)c3ccsc3)C2)c(C(=O)O)s1` [Compound 211, 5-(3,3-Dimethyl-but-1-ynyl)-3-{(4-methyl-cyclohexanecarbonyl)-[1-(thiophene-3-sulfonyl)-pyrrolidin-3-yl]-amino}-thiophene-2-carboxylic acid], with 99.7%.
In turn, `Cc1nc(S(=O)(=O)N2CC[C@H](N(c3cc(C#CC(C)(C)C)sc3C(=O)O)C(=O)[C@H]3CC[C@H](C)CC3)C2)cn1C` [Compound 212, 5-(3,3-Dimethyl-but-1-ynyl)-3-[[1-(1,2-dimethyl-1H-imidazole-4-sulfonyl)-pyrrolidin-3-yl]-(4-methyl-cyclohexanecarbonyl)-amino]-thiophene-2-carboxylic acid] gave an inhibition at 2 µM of 99.3%.
In the case of `CC(C)(C)C#Cc1cc(N(C(=O)[C@H]2CC[C@H](C)CC2)[C@H]2CCN(S(=O)(=O)c3cccs3)C2)c(C(=O)O)s1` [Compound 213, 5-(3,3-Dimethyl-but-1-ynyl)-3-{(4-methyl-cyclohexanecarbonyl)-[1-(thiophene-2-sulfonyl)-pyrrolidin-3-yl]-amino}-thiophene-2-carboxylic acid], the inhibition at 2 µM worked out at 99.9%.
Then `CC(C)(C)C#Cc1cc(N(C(=O)[C@H]2CC[C@H](C)CC2)[C@H]2CCN(S(=O)(=O)c3cnc(=O)[nH]c3)C2)c(C(=O)O)s1` [Compound 214, 5-(3,3-Dimethyl-but-1-ynyl)-3-{(4-methyl-cyclohexanecarbonyl)-[1-(2-oxo-1,2-dihydro-pyrimidine-5-sulfonyl)-pyrrolidin-3-yl]-amino}-thiophene-2-carboxylic acid], with 69.9%; and `CC(C)(C)C#Cc1cc(N(C(=O)[C@H]2CC[C@H](C)CC2)[C@H]2CCN(S(=O)(=O)c3ccccn3)C2)c(C(=O)O)s1` [Compound 215, 5-(3,3-Dimethyl-but-1-ynyl)-3-{(4-methyl-cyclohexanecarbonyl)-[1-(pyridine-2-sulfonyl)-pyrrolidin-3-yl]-amino}-thiophene-2-carboxylic acid], with 100%; and `CC(C)(C)C#Cc1cc(N(C(=O)[C@H]2CC[C@H](C)CC2)[C@H]2CCN(S(=O)(=O)c3cccnc3)C2)c(C(=O)O)s1` [Compound 216, 5-(3,3-Dimethyl-but-1-ynyl)-3-{(4-methyl-cyclohexanecarbonyl)-[1-(pyridine-3-sulfonyl)-pyrrolidin-3-yl]-amino}-thiophene-2-carboxylic acid], with 100%.
Then `CC(C)(C)C#Cc1cc(N(C(=O)[C@H]2CC[C@H](C)CC2)[C@H]2CC[C@@H](OC3CCOCC3)CC2)c(C(=O)O)s1` [Compound 219, 5-(3,3-dimethylbut-1-ynyl)-3-((1r,4R)-4-methyl-N-((1r,4R)-4-(tetrahydro-2H-pyran-4-yloxy)cyclohexyl)cyclohexanecarboxamido)thiophene-2-carboxylic acid], with 100%; and `CC(C)(C)C#Cc1cc(N(C(=O)[C@H]2CC[C@H](C)CC2)C2CCC(O[C@@H]3CO[C@H]4OCC[C@H]43)CC2)c(C(=O)O)s1` (stereo partly drawn) [Compound 221, 5-(3,3-dimethylbut-1-ynyl)-3-((1r,4R)-4-methyl-N-(4-((3S,3aS,6aR)-tetrahydro-2H-furo[2,3-b]furan-3-yloxy)cyclohexyl)cyclohexanecarboxamido)thiophene-2-carboxylic acid], with 100%.
The compound `CC(C)(C)C#Cc1cc(N(C(=O)[C@H]2CC[C@H](C)CC2)[C@H]2CC[C@H](OC3CCN(C(=O)OC(C)(C)C)CC3)CC2)c(C(=O)O)s1` [Compound 222, 3-(N-(4-(1-(tert-butoxycarbonyl)piperidin-4-yloxy)cyclohexyl)-4-methylcyclohexanecarboxamido)-5-(3,3-dimethylbut-1-ynyl)thiophene-2-carboxylic acid] had an inhibition at 2 µM of 97.7%.
`CC(C)(C)C#Cc1cc(N(C(=O)[C@H]2CC[C@H](C)CC2)[C@H]2CC[C@H](OC3CCNCC3)CC2)c(C(=O)O)s1` [Compound 223, 5-(3,3-dimethylbut-1-ynyl)-3-(4-methyl-N-(4-(piperidin-4-yloxy)cyclohexyl)cyclohexanecarboxamido)thiophene-2-carboxylic acid] yielded an inhibition at 2 µM of 100%.
For the compound `CC(C)(C)C#Cc1cc(N(C(=O)[C@H]2CC[C@H](C)CC2)[C@H]2CC[C@H](OC3CCOC3)CC2)c(C(=O)O)s1` (stereo partly shown) [Compound 224, 5-(3,3-dimethylbut-1-ynyl)-3-(4-methyl-N-(4-(tetrahydrofuran-3-yloxy)cyclohexyl)cyclohexanecarboxamido)thiophene-2-carboxylic acid], the inhibition at 2 µM was 99.9%.
Then `CC(C)(C)C#Cc1cc(N(C(=O)[C@H]2CC[C@H](C)CC2)[C@H]2CC[C@H](O[C@H]3CCN(C(=O)OC(C)(C)C)C3)CC2)c(C(=O)O)s1` [Compound 225], with 98.4%; and `CC(C)(C)C#Cc1cc(N(C(=O)[C@H]2CC[C@H](C)CC2)[C@H]2CC[C@H](O[C@H]3CCNC3)CC2)c(C(=O)O)s1` [Compound 226, 5-(3,3-dimethylbut-1-ynyl)-3-(4-methyl-N-(4-((S)-pyrrolidin-3-yloxy)cyclohexyl)cyclohexanecarboxamido)thiophene-2-carboxylic acid], with 99.9%; and `C[C@@H]1CC[C@@H](C(=O)N(c2cc(C#CC(C)(C)C)sc2C(=O)O)[C@H]2CC[C@H](OC3CCOC3)CC2)[C@@H](O)C1` (stereo partly shown) [Compound 227], with 100%.

The values above are taken from patent US8569302B2, “Inhibitors of flaviviridae viruses” (Gilead Sciences, Inc., priority 2009, dated 2013).
